The source of these data is patent US20250302728A1, “FRAGRANCE COMPOSITIONS AND PRODUCTS CONVEYING A POSITIVE MOOD” (SYMRISE AG, priority 2022, published 2025).

Holding throughout (format): in vivo, human
The test system of assay [1] is subject's mood. The experiment in a line: Implicit response test (IRT). The arrangement: scale not given here. As for the experimental part: (§1) 1. Sensorial and Emotional Evaluation of Fragrance Raw Materials Each fragrance was evaluated by 30 subjects. At each appointment, the subject discovered fragrances in one sequence of four fragrances and two sequences of three fragrances separated by a 10-minute break.
(§2) During those appointments, the subjects smelt the fragrances in a random way.
(§3) For each fragrance, the subject discovered each fragrance on a card strip for 10 seconds. Between each product, a rest-period of 2 minutes was carried out during which the subject smelt their own body odour by smelling their wrist and the subject drank a little bit of water as well.
(§4) The evaluation is carried out in standardized lighting conditions and under a monitored temperature (temperature 21±1.5° C.).
Implicit response tests (IRTs) are a family of tests and assess the subjects' immediate, “gut instinct” responses the fragrance raw materials.
The alleged underlying processes are based on how neurosciences describe the way our brain processes information. Indeed, our brain processes information through two systems: System 2, which is slow and processes conscious information, and System 1, which is fast and processes non-conscious information.
The IRT tests are performed at a computer, where the following words appear on the computer screen: • Energizing • Relaxing • Attractive • Sensual • Joyful • Protective • Confident • Fresh • Well-being
The subject has to click on the screen with the computer mouse to indicate their accordance or not of the word with the tested fragrance. In addition, the times to click the button are recorded.

Assay [2] relates to subject's mood. The assay can be described thus: Sensorial and emotional evaluation of fragrance raw materials and fragrance compositions (prosody, verbatim, GEW, IRT, EmoChar combined to one mood). The settings on record: 30 subjects, card strip for 10 seconds; details in FIG. 1-9. As for the experimental part: as §1, §2, §3, §4
The different recordings are carried in technical room during talking with the technicians. he following tests were performed for more than 100 different fragrance raw materials.
The following testing procedures were used to determine one mood out of five different testing strategies. All results of the single testing protocols as described in 1.1 to 1.5 were combined and one mood per fragrance raw material or fragrance composition was determined based on the single testing results.
Fragrance compositions were designed by combining the tested fragrance raw materials and the compositions were tested in 30 different subjects to evaluate the emotional impression conveyed by the fragrance composition as described above for the fragrance raw materials.

In assay [3] the test system is subject's mood. The experiment in a line: Actimood scoring (correlation of EmoChar and IRT values). As for the experimental part:
as §1, §3
Emochar™ is a system of emotional characterization, scoring 7 main emotional dimensions from 0 to 10: • Stimulation: focus, attention, and awakening. • Relaxation: serenity, relaxation and appeasing. • Sensual: arousing, sexy and erotic. • Pleasure: liking, “gourmand” and satisfaction. • Tenderness: gentleness and softness. • Joy: excitement, fun and enthusiasm. • Self-esteem: confidence and assurance
Actimood scores are based on a correlation of EmoChar™ and IRT values. The scores are classified on a scale from 0 (low impact on subject's mood) to 3 (high impact on subject's mood).
Each score is obtained according to an algorithm, mixing verbal and non-verbal responses of volunteers to a specific product, or stimulus in a given context. The algorithm was developed from extensive field data, and in accordance with scientific literature and validated biobehavioral patterns associated to various emotional states.

Setting [4] is: ingredients of the fragrance composition conveying a fresh mood (Table 1).
The mark [5] stands for this setting: ingredients of the fragrance composition conveying an attractive mood (Table 2).
The mark [6] stands for this setting: attractive mood (Table 11), scale 0 (low impact) to 3 (high impact).
[7] abbreviates: fresh mood (Table 12), scale 0 (low impact) to 3 (high impact).
[8] abbreviates: joyful mood (Table 6), scale 0 (low impact) to 3 (high impact).
[9] abbreviates: sensual mood (Table 8), scale 0 (low impact) to 3 (high impact).
[10] abbreviates: well-being mood (Table 10), scale 0 (low impact) to 3 (high impact).
Setting [11] is: protective mood (Table 5), scale 0 (low impact) to 3 (high impact).
The mark [12] stands for this setting: self-confident mood (Table 9), scale 0 (low impact) to 3 (high impact).
Where [13] appears, read: energizing mood (Table 7), scale 0 (low impact) to 3 (high impact).
Setting [14] is: relaxing mood (Composition 2, Table 4), scale 0 (low impact) to 3 (high impact).

For the molecule `CC1(C)CCCC2(C)C1CCC1(C)OCCC12` (stereo not drawn) [AMBROXIDE, 3a,6,6,9a-Tetramethyldodecahydronaphtho[2,1-b]furan], the “IRT Score” value is listed as 1643 in assay [1] (setting [4]) and 1921 in assay [1] (setting [5]). The “mood conveyed by the fragrance raw material” value (from here on “mood conveyed”) in assay [2] was “conveying a self-confident mood”. For the same molecule, the Actimood score is on record as 3 in assay [3] (setting [6]); 3 in assay [3] (setting [7]); 3 in assay [3] (setting [8]); 2 in assay [3] (setting [9]); 3 in assay [3] (setting [10]).

For `COC1(C)CCC23CC1C(C)(C)C2CCC3C` (stereo not drawn) [CEDRAMBER, 8-methoxy-2,6,6,8-tetramethyl-tricyclo[5.3.1.01,5]undecane], in assay [2], the “mood conveyed” value was “conveying a sensual mood”. Besides, the Actimood score in assay [3] (setting [9]) is recorded as 3; in assay [3] (setting [10]) it was 0.

`CC1C(C)(C)C2=C(C(=O)CCC2)C1(C)C` (stereo not drawn) [CASHMERAN, 1,1,2,3,3,-pentamethyl-2,5,6,7-tetrahydroinden-4-one]: the “IRT Score” value in assay [1] (setting [5]) is 1469. In assay [2], the “mood conveyed” value is on record as “conveying a protective mood”. The Actimood score in assay [3] (setting [6]) is listed as 3; in assay [3] (setting [11]), 2; in assay [3] (setting [12]), 2; in assay [3] (setting [10]), 1.

As to `CCOc1cc(C=O)ccc1O` [ETHYL VANILLIN, 3-ethoxy-4-hydroxy-benzaldehyde], the “IRT Score” value in assay [1] (setting [5]) was determined as 2786. In addition, in assay [2], the “mood conveyed” value is reported as “conveying a well-being mood”. Moreover, the Actimood score in assay [3] (setting [6]) is listed as 3; in assay [3] (setting [11]), 1.

Consider `Cc1ccc2c(c1)OCC(=O)CO2` [CALONE, 7-methyl-1,5-benzodioxepin-3-one], for which the “IRT Score” value in assay [1] (setting [4]) was 2830. In addition, the Actimood score in assay [3] (setting [13]), in assay [3] (setting [7]), in assay [3] (setting [8]) and in assay [3] (setting [10]) was 3 throughout.

For the molecule `O=C1CCCCCCCCCCCCCCO1` [MACROLIDE ® SUPRA, Pentadecan-15-olide], the “IRT Score” value in assay [1] (setting [5]) is reported as 1944. Besides, the Actimood score is given as 3 in assay [3] (setting [6]), 2 in assay [3] (setting [11]), 3 in assay [3] (setting [14]) and 2 in assay [3] (setting [10]).

On to `C=CCOC(=O)CCC1CCCCC1` [ALLYL CYCLOHEXYL PROPIONATE, allyl 3-cyclohexylpropanoate], for which the “mood conveyed” value in assay [2] is “conveying a joyful mood”. The molecule further showed an Actimood score in assay [3] (setting [8]) of 3.

For the molecule `CCc1occc(=O)c1O` [ETHYL MALTOL, 2-ethyl-3-hydroxy-pyran-4-one], in assay [1] (setting [5]), the “IRT Score” value is listed as 3505. Also, the “mood conveyed” value in assay [2] is “conveying an attractive mood”. Moreover, the Actimood score in assay [3] (setting [6]) and in assay [3] (setting [8]) was 3 each time.

With Oxacyclohexadecen-2-one [GLOBALIDE ®], in assay [1] (setting [5]), the “IRT Score” value came out at 1815. Further, the “mood conveyed” value in assay [2] was “conveying a relaxing mood”. Besides, the Actimood score in assay [3] (setting [6]) is 3; in assay [3] (setting [11]), 2; in assay [3] (setting [10]), 2.

Consider `CC(CC=O)CCCC(C)(C)O` (stereo not drawn) [HYDROXY CITRONELLAL, 7-hydroxy-3,7-dimethyl-octanal], for which the “IRT Score” value in assay [1] (setting [5]) is on record as 1283. For the same molecule, the Actimood score turned out to be 3 in assay [3] (setting [6]) and 1 in assay [3] (setting [12]).

Consider `O=C1CCCCCCCCCCCC(=O)OCCO1` [ETHYLENE BRASSYLATE, 1,4-dioxacycloheptadecane-5,17-dione], for which the “IRT Score” value in assay [1] (setting [5]) came out at 1177. For the same molecule, the Actimood score in assay [3] (setting [6]) was found to be 3; in assay [3] (relaxing and sleep enhancing mood (Composition 1, Table 3), scale 0 (low impact on subject's mood) to 3 (high impact)), 2; in assay [3] (setting [12]), 2; in assay [3] (setting [9]) it was 3.

In the case of `CC(C)(C)c1ccc(CCC=O)cc1` [BOURGEONAL, 3-(4-tert-butylphenyl)propanal], the “IRT Score” value in assay [1] (setting [5]) was determined as 1045. The Actimood score in assay [3] (setting [6]) is 3; in assay [3] (setting [14]) it was 3; in assay [3] (setting [12]), 2.

Take `C=CC(C)(O)CCC=C(C)CC` (mixture of isomers) [ETHYL LINALOOL, (6E)-3,7-dimethylnona-1,6-dien-3-ol]: the “IRT Score” value worked out at 1682 in assay [1] (setting [4]) and 565 in assay [1] (setting [5]). The Actimood score in assay [3] (setting [6]) turned out to be 2; in assay [3] (setting [13]), 1; in assay [3] (setting [7]), 3; in assay [3] (setting [8]), 2.
